Laboratory results: publication PMC4368603, “Cardiac Contractility Structure-Activity Relationship and Ligand-Receptor Interactions; the Discovery Of Unique and Novel Molecular Switches in Myosuppressin Signaling” (PLoS ONE, 2015)
“And” between values parts separate entries of the source, which are not always exact repeats. Equal entries are not always repeated. Square brackets hold non-standard residues; d marks the D form. Ends that are not written are not given here. Peptide text beside a SMILES is read from it. pGlu = O=C1CC[C@@H](C(=O)O)N1

Columns and labels:
[1] = test system: R. prolixus heart; type: in vivo, Rhodnius prolixus; settings: for EC50: 5th instar semi-intact preparation, 25 ± 2°C, heart rate as % of saline, non-linear regression, N = 10 animals per condition, read-out: EC50, dose-dependent decrease of R. prolixus heart rate (cardiac contractility)
Experimental: R. prolixus were maintained at 28°C under high humidity in a cycle of 12h:12h (L:D). The insects used were 5th instar 2–3 weeks post-ecdysis fed on chicken blood.
Fifth instar R. prolixus were placed ventral surface down on a dish with paraffin wax and dissected under physiological saline. Segments four to seven from the dorsal abdominal cuticle were removed using minuten pins leaving the dorsal vessel exposed. The semi-intact preparation was equilibrated in 20 μl saline for 20 minutes at room temperature (25° ± 2°C), replacing the fluid with fresh saline every five minutes. Heart rate was measured under saline after the final bath, counting the number of contractions in one minute. This counting was replicated three times for each preparation, and the results of the three countings were averaged. After this, the saline was removed and replaced with an equal volume of solution containing a peptide. The heart rate was measured and expressed as % of the control (saline). Ten animals were analyzed for control and for each experiment. The investigator who performed the bioassay was unaware of the peptide structures being tested.
Dose response curves were generated and the effective concentrations at half-maximal response (EC50) values were calculated using a non-linear regression with GraphPad Prism version 6.03. Activities of RhpMS, DrmMS, and analogs were compared to saline, set at 100%, using Single Factor ANOVA to calculate p values; significance was set at p ≤ 0.05.

[2] = test system: gut; settings: gut motility SAR; cited from earlier work
Text: (§1) Table 3 DrmMS and analogs: structures and activities. | column: Gut || [6–10]DrmMS was the heart rate active core, yet [4–10]DrmMS was the gut motility active core. […] We believed DrmMS-DrmMS-R1 and DrmMS-DrmMS-R2 interactions would reflect our SAR data. N-terminal truncated and alanyl-substituted analogs (Table 3) were docked to the receptors; additional data are available in Supporting Information. In DrmMS docked to DrmMS-R1 (Fig. 4, Table 4), F7 made multipl ...

[3] = test system: heart; settings: cardiac contractility / heart rate SAR; cited from earlier work
Text: as §1, with “Heart” for “Gut”

Q: With `CC[C@H](C)[C@H](NC(=O)[C@H](CC(=O)O)NC(=O)[C@@H]1CCC(=O)N1)C(=O)N[C@@H](CC(=O)O)C(=O)N[C@@H](Cc1c[nH]cn1)C(=O)N[C@H](C(=O)N[C@@H](Cc1ccccc1)C(=O)N[C@@H](CCSC)C(=O)N[C@@H](CCCNC(=N)N)C(=O)N[C@@H](Cc1ccccc1)C(N)=O)C(C)C` [RhpMS] ([pGlu]DIDHVFMRF-NH2) as the molecule, how does the EC50 [1] read?
A: 140 nM

Q: And the “Heart Rate Mean ± S.E.M., percent of saline” value ([1]; peptide at 1 μM, saline = 100%, ten animals per experiment)?
A: 4 % of saline and 4 ± 3 % of saline

Q: For “DHVFLRF-NH2 [[4–10]DrmMS, N-terminal truncated DrmMS analog DHVFLRF-NH2]”, which Gut activity [2] is on record?
A: active core

Q: What about the Heart activity [3] of the same molecule?
A: agonist

Q: For DHVFMRF-NH2 [[4–10]RhpMS], which EC50 [1] is on record?
A: 32 nM

Q: Which Gut activity [2] does the source give for “FLRF-NH2 [[7–10]DrmMS, N-terminal truncated DrmMS analog FLRF-NH2]” here?
A: inactive

Q: And the Heart activity [3]?
A: inactive

Q: Which Gut activity [2] does the source give for “HVFLRF-NH2 [[5–10]DrmMS, N-terminal truncated DrmMS analog HVFLRF-NH2]” here?
A: antagonist

Q: And the Heart activity [3]?
A: agonist

Q: With “TDVDHVFARF-NH2 [[A8] DrmMS, alanyl-substituted DrmMS analog […]-NH2]” as the molecule, how does the Gut activity [2] read?
A: inactive

Q: What about the Heart activity [3] of the same molecule?
A: agonist

Q: For TDVDHVFLRF-NH2 [DrmMS], which EC50 [1] is on record?
A: 50 nM

Q: What does the source list for “VFLRF-NH2 [[6–10]DrmMS, N-terminal truncated DrmMS analog VFLRF-NH2]”?
A: Gut activity [2]: inactive; Heart activity [3]: active core

Q: Which Gut activity [2] does the source give for Y-T(Bpa)VDHVFLRF-NH2 [Y-Bpa2DrmMS] here?
A: agonist

Q: And the Heart activity [3]?
A: agonist
